According to paper PMC12469269, “Investigating SMR Peptide Interactions with Breast Cancer-Associated Proteins” (International Journal of Molecular Sciences, 2025):
pKd: −log10 of the molar value. Where no end group is shown, it is not given here.

How the values were obtained:
[1] = molecular target: T1, Recombinant Human GRP75/HSPA9B/Mortalin His Protein (Homo sapiens, UniProt P38646); experiment: biochemical; type: binding
T1 construct: His; purchased Novus Biologicals, LLC/R&D Systems NBC1-18380
Description: (§1) We conducted SPR experiments to characterize and quantify the direct binding interactions between Nef and SMR peptides (the analytes) and the target proteins, Vimentin and Mortalin (the immobilized ligands). We did so by injecting the analytes at various concentrations over the chip surface with the immobilized ligands.
(§2) Recombinant Human Vimentin Protein, CF (catalog # 2105-VI-100), Recombinant Human GRP75/HSPA9B/Mortalin His Protein (catalog # NBC1-18380), and Recombinant Human HSPA8/HSC71/Hsc70 His Protein (Catalog # NBPI-30278) were purchased from Novus Biologicals, LLC/R&D Systems, Centennial, CO, USA. These proteins were used for SPR.
(§3) SPR experiments were conducted using a Biacore T200 instrument (Cytiva, Marlborough, MA, USA). CM5 sensor chips (Cytiva) were used to immobilize proteins and run subsequent binding assays at 25 °C. To investigate the direct binding of Nef and SMR peptides to Vimentin and Mortalin and SMR competition studies, both proteins were immobilized as ligands on the active flow cells (FCs) using standard amine coupling chemistry. One reference FC was prepared using the same surface chemistry, and no proteins were immobilized onto this reference FC. Vimentin was immobilized to a level of ~2500 RU to 7200 RU in the presence of 4 mM of HCl and Mortalin to a level of ~11,900 RU to 13,200 RU in the presence of 10 mM of sodium acetate buffer at pH 4.5. Analytes were then injected (Nef, SMR peptides, Mortalin peptides, and mixtures of […]). One 20 s pulse of 1:500 H3PO4 (H3PO4:ddH2O) was injected for surface regeneration. To investigate the direct binding of Mortalin peptides to Nef, Nef was immobilized as a ligand to ~450 RU using thiol coupling chemistry. A reference FC was created using a method similar to the one above. Mortalin peptides were then injected as analytes. One 20 s pulse of 1 M NaCl was injected for surface regeneration. HBS-P (10 mM Hepes, pH 7.4; 150 mM NaCl; 0.05% surfactant P20) was used as the immobilization running buffer during the immobilization of all ligands. HBS-P was also used to dilute analytes and as a running buffer during all analyte–ligand binding assays. SPR data used for analysis was both blank (signals due to HBS-P only) and reference-subtracted (signals corresponding to reference FCs). Sensorgrams recorded for kinetics analyses were fitted to a 1:1 binding model using the Biacore T200 evaluation software version 3.2.1. GraphPad Prism version 10.4.0 was used to plot all graphs.

[2] = molecular target: T2, Recombinant Human Vimentin Protein (Homo sapiens, UniProt P08670); experiment: biochemical; type: binding
T2 construct: purchased Novus Biologicals, LLC/R&D Systems 2105-VI-100
Description: as §1, §2, §3

[3] = tested on: Jurkat T cells; experiment: exNef secretion, Mortalin scanning peptides (Figure 5A), Jurkat T cells; type: cell-based; conditions: 50 ng / 200 μL peptide, 250 ng Nef-GFP plasmid, 48 h, GFP fluorescence in media; SMRmut = 100; mean of three independent experiments
Experimental: To determine whether Mortalin-derived peptides can inhibit the secretion of extracellular Nef (exNef), Jurkat T cells were co-transfected with wild-type Nef-GFP and various scanning peptides derived from the substrate-binding domain of Mortalin (#56–#67). SMRwt and SMRmut peptides were included as positive and negative controls, respectively. After 48 h of incubation, GFP fluorescence in the culture media was measured as a proxy for exNef secretion.
(§4) Figure 5 Effects of Mortalin-derived peptides on inhibition of exNef and tumor exosome secretion. (A) Jurkat T cells were co-transfected with 250 ng of wild-type Nef-GFP plasmid and 50 ng of Mortalin-derived scanning peptides (#56–#67), including SMRwt and SMRmut as positive and negative controls. After 48 h, GFP fluorescence in culture media was measured to assess exNef secretion. Data represent mean ± SD from three independent experiments. Statistical significance was determined using a two-sample t-test assuming equal variances. (B) MDA-MB-231 cells were transfected with 50 ng of Mortalin-derived scanning peptides (#56–#67), including SMRwt and SMRmut controls. Cells were labeled with N-Rh-PE and incubated for 48 h. N-Rh-PE fluorescence in culture media was measured to assess exosome secretion. Data represent mean ± SD from three independent experiments. Statistical significance was determined using a two-sample t-test assuming equal variances. TEXT PRINTED IN THE PICTURE: (A) #56: Jurkat GFP (%): 117.84 (50 ng / 200 μL) | (A) #57: Jurkat GFP (%): 96.69 (50 ng / 200 μL) | (A) #58: Jurkat GFP (%): 91.89 (50 ng / 200 μL) | (A) #59: Jurkat GFP (%): 95.49 (50 ng / 200 μL) | (A) #60: Jurkat GFP (%): 98.25 (50 ng / 200 μL) | (A) #61: Jurkat GFP (%): 0.65 (50 ng / 200 μL) | (A) #62: Jurkat GFP (%): 0.51 (50 ng / 200 μL) | (A) #63: Jurkat GFP (%): 98.02 (50 ng / 200 μL) | (A) #64: Jurkat GFP (%): 95.37 (50 ng / 200 μL) | (A) #65: Jurkat GFP (%): 96.34 (50 ng / 200 μL) | (A) #66: Jurkat GFP (%): 92.28 (50 ng / 200 μL) | (A) #67: Jurkat GFP (%): 99.56 (50 ng / 200 μL) | (A) SMRwt: Jurkat GFP (%): 0.51 (50 ng / 200 μL) | (A) SMRmut: Jurkat GFP (%): 100 (50 ng / 200 μL) | (B) #56: MDA-MB-231 N-Rh-PE (%): 66.31 (50 ng / 200 μL) | (B) #57: MDA-MB-231 N-Rh-PE (%): 79.73 (50 ng / 200 μL) | (B) #58: MDA-MB-231 N-Rh-PE (%): 68.11 (50 ng / 200 μL) | (B) #59: MDA-MB-231 N-Rh-PE (%): 67.81 (50 ng / 200 μL) | (B) #60: MDA-MB-231 N-Rh-PE (%): 72.32 (50 ng / 200 μL) | (B) #61: MDA-MB-231 N-Rh-PE (%): 7.53 (50 ng / 200 μL) | (B) #62: MDA-MB-231 N-Rh-PE (%): 5.36 (50 ng / 200 μL) | (B) #63: MDA-MB-231 N-Rh-PE (%): 75.39 (50 ng / 200 μL) | (B) #64: MDA-MB-231 N-Rh-PE (%): 73.49 (50 ng / 200 μL) | (B) #65: MDA-MB-231 N-Rh-PE (%): 81.65 (50 ng / 200 μL) | (B) #66: MDA-MB-231 N-Rh-PE (%): 81.79 (50 ng / 200 μL) | (B) #67: MDA-MB-231 N-Rh-PE (%): 89.82 (50 ng / 200 μL) | (B) SMRwt: MDA-MB-231 N-Rh-PE (%): 6.11 (50 ng / 200 μL) | (B) SMRmut: MDA-MB-231 N-Rh-PE (%): 100 (50 ng / 200 μL)
To identify peptide sequences within Mortalin that modulate extracellular vesicle (EV) secretion, a panel of scanning peptides was synthesized and tested in Jurkat T cells. The peptides, listed in Table 1, were custom-synthesized with an average purity of 75% and used in transfection assays to evaluate their impact on EV release. Jurkat T cells (3 × 10^5) were co-transfected with 50 ng of individual Mortalin peptides […] 250 ng of wild-type Nef-GFP plasmid using Chariot™ transfection reagent. Transfection efficiency was confirmed by fluorescence microscopy after 48 h. EV secretion was assessed by measuring GFP fluorescence in the culture media, and statistical analysis was performed using unpaired two-factor t-tests (p < 0.05). Panel of Mortalin scanning peptides developed and tested for their effect EV secretion and Table S2. Mortalin Scanning Peptides Used in Transfection Assays, see the Supplementary Information. […]

[4] = tested on: MDA-MB-231 cells; experiment: Tumor exosome secretion, Mortalin scanning peptides (Figure 5B), MDA-MB-231; type: cell-based, human; conditions: 50 ng / 200 μL peptide, transfected, 48 h, N-Rh-PE fluorescence in media; SMRmut = 100; mean of three independent experiments
Experimental: as §4
To assess the effect of Mortalin-derived peptides on tumor exosome secretion, MDA-MB-231 breast cancer cells were transfected with the same panel of scanning peptides and labeled with N-Rh-PE to track exosome release. Following incubation, N-Rh-PE fluorescence in the culture media was measured as a proxy for extracellular exosome levels. SMRwt and SMRmut peptides were again used as controls. […] Statistical analysis confirmed significant differences: SMRmut vs. #61 (p < 7.20 × 10^−7), SMRmut vs. #62 (p < 5.70 × 10^−7), and SMRmut vs. SMRwt (p < 5.96 × 10^−7).

[5] = tested on: MDA-MB-231 BC cells; experiment: Exosome secretion by N-Rh-PE (Figure 4A), MDA-MB-231; type: cell-based, human; conditions: 100 ng/mL peptide, 24 h, no transfection, N-Rh-PE fluorescence, three independent experiments
Experimental: (§5) Figure 4 Effects of SMR, Mortalin, and Vimentin peptides on tumor cell exosome secretion in MDA-MB-231 and MCF-7 breast cancer cells. MDA-MB-231 and MCF-7 BC cells (200 µL, 1 × 10^4 cells/mL) were seeded into a 96-well plate and treated with 100 ng/mL of either wild-type (wt) or mutant (mut) peptides of SMR, Mortalin, or Vimentin. Treatments were performed in RPMI-1640 medium without transfection, and cells were incubated at 37 °C for 24 h. The cells were then treated with 0.5 µM/mL of N-Rh-PE, incubated at 4 °C for 1 h, and washed with PBS. Fresh medium was also added. The cultures were incubated at 37 °C for an additional 24 h. N-Rh-PE refers to N-(Lissamine Rhodamine B sulfonyl) phosphatidyl-ethanolamine, a fluorescent lipid dye commonly used to label membranes and track vesicle trafficking. […] Exosome secretion was assessed by measuring the amount of N-Rh-PE, which corresponds to the number of exosomes released into the extracellular medium. Bar graphs show the relative exosome release level. Data represent the mean ± SD of three independent experiments.

[6] = tested on: MCF-7 BC cells; experiment: Exosome secretion by N-Rh-PE (Figure 4B), MCF-7; type: cell-based, human; conditions: 100 ng/mL peptide, 24 h, no transfection, N-Rh-PE fluorescence, three independent experiments
Experimental: as §5

[7] = molecular target: Nef protein (Human immunodeficiency virus type 1 group M subtype B, UniProt P03404); experiment: SPR binding of Mortalin peptides to immobilized Nef; design: species or system HIV-1; conditions: for kon: pH 7.4, read-out: ka (Nef)
Experimental: Figure 8 depicts the SPR results for Mortalin peptides binding to Nef. The Nef protein was immobilized as a ligand on the chip surface, and the peptides were used as analytes to flow into the buffer solution.
as §3

T2 sequence (P08670 whole entry): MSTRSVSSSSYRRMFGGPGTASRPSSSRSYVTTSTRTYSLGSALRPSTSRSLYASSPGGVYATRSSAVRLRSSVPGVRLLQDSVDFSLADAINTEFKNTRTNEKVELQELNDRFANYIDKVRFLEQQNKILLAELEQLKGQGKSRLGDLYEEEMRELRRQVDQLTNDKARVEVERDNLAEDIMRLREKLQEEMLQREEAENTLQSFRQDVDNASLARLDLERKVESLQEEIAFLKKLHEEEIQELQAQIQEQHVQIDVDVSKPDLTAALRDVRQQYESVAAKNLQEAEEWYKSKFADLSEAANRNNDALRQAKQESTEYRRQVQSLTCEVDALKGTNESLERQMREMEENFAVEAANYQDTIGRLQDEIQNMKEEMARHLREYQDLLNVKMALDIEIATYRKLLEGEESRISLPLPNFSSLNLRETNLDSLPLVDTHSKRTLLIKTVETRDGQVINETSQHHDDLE
T1 sequence (P38646 47-679): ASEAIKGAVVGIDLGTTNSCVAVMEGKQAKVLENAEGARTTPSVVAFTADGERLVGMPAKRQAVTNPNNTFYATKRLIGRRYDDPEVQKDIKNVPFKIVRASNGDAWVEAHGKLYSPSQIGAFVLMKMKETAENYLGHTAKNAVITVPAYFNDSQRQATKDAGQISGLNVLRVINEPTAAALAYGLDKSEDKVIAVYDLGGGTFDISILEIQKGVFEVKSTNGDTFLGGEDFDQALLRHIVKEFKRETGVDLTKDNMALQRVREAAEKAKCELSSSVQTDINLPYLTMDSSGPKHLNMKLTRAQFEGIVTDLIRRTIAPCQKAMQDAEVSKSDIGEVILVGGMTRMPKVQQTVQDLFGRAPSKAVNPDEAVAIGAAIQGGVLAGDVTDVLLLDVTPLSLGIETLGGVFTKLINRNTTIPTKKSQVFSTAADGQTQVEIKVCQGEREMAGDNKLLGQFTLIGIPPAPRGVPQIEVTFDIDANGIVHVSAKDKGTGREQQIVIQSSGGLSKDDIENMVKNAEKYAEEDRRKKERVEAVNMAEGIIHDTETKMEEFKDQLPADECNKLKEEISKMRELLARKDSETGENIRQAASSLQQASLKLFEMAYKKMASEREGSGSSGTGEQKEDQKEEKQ

| Substance | Jurkat GFP (exNef secretion) [3] [%] | MDA-MB-231 N-Rh-PE (exosome secretion) [4] [%] | also measured |
| --- | --- | --- | --- |
| VGFPV [SMRwt, ^66Val-Gly-Phe-Pro-Val^70] |  |  | pKd [1]: 4.68; kon ([1]; pH 7.4, read-out: ka (Mortalin)): 671 M⁻¹ s⁻¹; pKd [2]: 5.18; kon ([2]; pH 7.4, read-out: ka (Vimentin)): 6410 M⁻¹ s⁻¹ |
| MVKNAEKYAEEDRRKKERVE [#57, Mortalin scanning peptide 57] | 96.69 | 79.73 |  |
| AVNMAEGIIHDTETKMEEFK [#59, Mortalin scanning peptide 59] | 95.49 | 67.81 |  |
| DTETKMEEFKDQLPADECNK [#60, Mortalin scanning peptide 60] | 98.25 | 72.32 |  |
| LYEEEMRE [VIM-wt, Vimentin-wt peptide (LYEEEMRE)] |  |  | exosome release vs untreated, in words [5]: significantly decreased exosome release; p, UT vs. peptide, exosome release [5]: < 0.00005; exosome release vs untreated, in words [6]: significantly decreased exosome release; p, UT vs. peptide, exosome release [6]: < 0.00005 |
| GSGSSGTGEQKEDQKEEKQ [#67, Mortalin scanning peptide 67] | 99.56 | 89.82 |  |
| GGLSKDDIENMVKNAEKYAE [#56] |  |  | pKd [7]: 4.11; kon [7]: 370 M⁻¹ s⁻¹ |
| AYKKMASEREGSGSSGTGEQ [#66, Mortalin scanning peptide 66] | 92.28 | 81.79 |  |
| QOASLKLFEMAYKKMASERE [#65, Mortalin scanning peptide 65] | 96.34 | 81.65 |  |
| LKEEISKMRELLARKDSETG [#62] |  |  | pKd [7]: 5.72; kon [7]: 1970 M⁻¹ s⁻¹ |
| ENIRQAASSLQOASLKLFEM [#64, Mortalin scanning peptide 64] | 95.37 | 73.49 |  |
| LLARKDSETGENIRQAASSL [#63, Mortalin scanning peptide 63] | 98.02 | 75.39 |  |
| EDRRKKERVEAVNMAEGIIH [#58, Mortalin scanning peptide 58] | 91.89 | 68.11 |  |
